Laboratory results reported in patent US20260022096A1, “NOVEL SULFONAMIDES AND THEIR USE AS NEUROPROTECTIVE AND/OR NEURORESTORATIVE AGENTS” (GENECODE, priority 2022, published 2026).

biological target: T1, GFRα1-RET (Homo sapiens, UniProt P56159); experiment: Elk1 reporter-gene (luciferase) assay in cells expressing GFRα1-RET; assay type: cell-based; conditions: MG87 murine fibroblasts stably transfected with PathDetect Elk-1, GFRα1 and RET, 6 concentrations, agonist/activator activity
T1 construct: expressed in transfected cells; host or cells: MG87 murine fibroblasts, stably transfected
T1 sequence (P56159 25-429 limits assumed): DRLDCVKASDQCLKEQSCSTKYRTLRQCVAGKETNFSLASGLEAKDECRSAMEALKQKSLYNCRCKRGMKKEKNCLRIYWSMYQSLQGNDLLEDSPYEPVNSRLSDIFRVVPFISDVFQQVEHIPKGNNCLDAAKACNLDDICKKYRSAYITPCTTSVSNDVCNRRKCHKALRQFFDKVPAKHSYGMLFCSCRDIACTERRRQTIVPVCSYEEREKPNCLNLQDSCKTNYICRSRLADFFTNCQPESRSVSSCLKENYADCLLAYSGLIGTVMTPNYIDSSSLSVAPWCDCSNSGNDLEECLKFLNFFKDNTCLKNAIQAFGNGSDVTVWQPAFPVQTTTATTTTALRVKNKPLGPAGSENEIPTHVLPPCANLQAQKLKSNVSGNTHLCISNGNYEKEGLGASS
Protocol: For ECso determination, a dose-response test was performed using 6 concentrations of each tested compound. Dose-response curves were fitted using the sigmoidal dose-response (variable slope) analysis in GraphPad Prism program (Graph Pad Inc) and ECso of agonist/activator activity was calculated. Dose-response experiments were all performed in duplicate, two times independently.

CCCN(C)S(=O)(=O)c1ccc(OC)c(N2CCN(C(=O)c3ccc(F)cc3Cl)CC2C)c1 (racemic) [compound 001, 4-methoxy-N-methyl-N-propyl-3-[rac-(2S)-4-(2-chloro-4-fluoro-benzoyl)-2-methyl-piperazin-1-yl]benzenesulfonamide] and COc1ccc(S(=O)(=O)N(C)CCCF)cc1N1CCN(C(=O)c2ccc(F)cc2Cl)CC1C (racemic) [compound 038, N-(3-fluoropropyl)-4-methoxy-N-methyl-3-[rac-(2S)-4-(2-chloro-4-fluoro-benzoyl)-2-methyl-piperazin-1-yl]benzenesulfonamide] fall in the same range of EC50: 1 to 10 µM for the first, 1 to 10 µM for the second.

Compared with COc1ccc(S(=O)(=O)N2CCCC(Cc3ccccc3)C2)cc1N1C2CCC1CN(C(=O)c1ccc(F)cc1Cl)C2 (racemic) [compound 011, [(1S,5R)-8-[5-[[(3RS)-3-benzyl-1-piperidyl]sulfonyl]-2-methoxy-phenyl]-3,8-diazabicyclo[3.2.1]]octan-3-yl]-(2-chloro-4-fluoro-phenyl)methanone], COc1ccc(S(=O)(=O)N2CCC(Cc3ccccc3)CC2)cc1N1C2CCC1CN(C(=O)c1ccc(F)cc1Cl)C2 (racemic) [compound 025, (2-chloro-4-fluoro-phenyl)-[rac-(1S,5S)-8-[5-[(4-benzyl-1-piperidyl)sulfonyl]-2-methoxy-phenyl]-3,8-diazabicyclo[3.2.1]]octan-3-yl]methanone] is higher in EC50: < 1 µM for the first, 1 to 10 µM for the second. The first is the more potent here.

CCCN(C)S(=O)(=O)c1ccc(OC)c(N2CCN(C(=O)c3ccc(F)cc3C(F)(F)F)CC2C(F)(F)F)c1 (racemic) [compound 016, 4-methoxy-N-methyl-N-propyl-3-[rac-(2S)-4-[4-fluoro-2-(trifluoromethyl)benzoyl]-2-(trifluoromethyl)piperazin-1-yl]benzenesulfonamide] and CCCN(C)S(=O)(=O)c1ccc(OC)c(N2CCN(C(=O)c3ccc(F)cc3C(F)(F)F)CC2C)c1 (racemic) [compound 021, 4-methoxy-N-methyl-N-propyl-3-[rac-(2S)-4-[4-fluoro-2-(trifluoromethyl)benzoyl]-2-methyl-piperazin-1-yl]benzenesulfonamide] fall in the same range of EC50: 1 to 10 µM for the first, 1 to 10 µM for the second.

CCCN(C)S(=O)(=O)c1ccc(OC)c(N2CCN(C(=O)c3ccc(F)cc3C(F)(F)F)CC2CC)c1 (racemic) [compound 017, 4-methoxy-N-methyl-N-propyl-3-[rac-(2S)-2-ethyl-4-[4-fluoro-2-(trifluoromethyl)benzoyl]piperazin-1-yl]benzenesulfonamide] and CCCN(C)S(=O)(=O)c1ccc(OC)c(N2CCN(C(=O)c3ccc(F)cc3C(F)(F)F)CC2COC)c1 (racemic) [compound 022, 4-methoxy-N-methyl-N-propyl-3-[rac-(2R)-4-[4-fluoro-2-(trifluoromethyl)benzoyl]-2-(methoxymethyl)piperazin-1-yl]benzenesulfonamide] fall in the same range of EC50: 10 to 50 µM for the first, 10 to 50 µM for the second.

Compared with COc1ccc(S(=O)(=O)N2CCC(Cc3ccccc3)CC2)cc1N1CCN(C(=O)c2ccc(F)cc2C(F)(F)F)CC1C (racemic) [compound 018, [4-fluoro-2-(trifluoromethyl)phenyl]-[rac-(3S)-4-[5-[(4-benzyl-1-piperidyl)sulfonyl]-2-methoxy-phenyl]-3-methyl-piperazin-1-yl]methanone], COc1ccc(S(=O)(=O)N2CCC(Cc3ccccc3)CC2)cc1N1CCN(C(=O)c2ccc(F)cc2Cl)CC1C (racemic) [compound 019, (2-chloro-4-fluoro-phenyl)-[rac-(3S)-4-[5-[(4-benzyl-1-piperidyl)sulfonyl]-2-methoxy-phenyl]-3-methyl-piperazin-1-yl]methanone] is lower in EC50: 1 to 10 µM for the first, < 1 µM for the second. The second is the more potent here.

First: COc1ccc(S(=O)(=O)NC(C)(C)C)cc1N1CCN(C(=O)c2ccc(F)cc2Cl)CC1C (racemic) [compound 020, N-tert-butyl-4-methoxy-3-[rac-(2S)-4-(2-chloro-4-fluoro-benzoyl)-2-methyl-piperazin-1-yl]benzenesulfonamide]
Second: COc1ccc(S(=O)(=O)NC(C)(C)C)cc1N1[C@@H]2CC[C@H]1CN(C(=O)c1ccc(F)cc1Cl)C2 [compound 002]
The EC50 of the first is higher: 10 to 50 µM for the first, 1 to 10 µM for the second. The second is the more potent here.

First: COc1ccc(S(=O)(=O)N2CCC(OCc3ccccc3)C2)cc1N1C2CCC1CN(C(=O)c1ccc(F)cc1Cl)C2 (racemic) [compound 037, [(1S,5R)-8-[5-[(3SR)-3-benzyloxypyrrolidin-1-yl]sulfonyl-2-methoxy-phenyl]-3,8-diazabicyclo[3.2.1]octan-3-yl]-(2-chloro-4-fluoro-phenyl)methanone]
Second: COc1ccc(S(=O)(=O)N2CCC(Oc3ccccc3)C2)cc1N1C2CCC1CN(C(=O)c1ccc(F)cc1Cl)C2 (racemic) [compound 126, (2-chloro-4-fluoro-phenyl)-[(1S,5R)-8-[2-methoxy-5-[(3SR)-3-phenoxypyrrolidin-1-yl]sulfonyl-phenyl]-3,8-diazabicyclo[3.2.1]octan-3-yl]methanone]
The EC50 of the first is higher: 1 to 10 µM for the first, < 1 µM for the second.

COc1ccc(S(=O)(=O)N2CCN([C@H]3C[C@@H]3c3ccc(F)cc3)CC2)cc1N1[C@@H]2CC[C@H]1CN(C(=O)c1ccc(F)cc1Cl)C2 (racemic) [compound 044, (2-chloro-4-fluoro-phenyl)-[(1S,5R)-8-[5-[4-[(1SR,2RS)-2-(4-fluorophenyl)cyclopropyl]piperazin-1-yl]sulfonyl-2-methoxy-phenyl]-3,8-diazabicyclo[3.2.1]octan-3-yl]methanone] and COc1ccc(S(=O)(=O)N2CCN(CC(C)c3ccc(F)cc3)CC2)cc1N1C2CCC1CN(C(=O)c1ccc(F)cc1Cl)C2 (racemic) [compound 045, (2-chloro-4-fluoro-phenyl)-[(1S,5R)-8-[5-[4-[(2RS)-2-(4-fluorophenyl)propyl]piperazin-1-yl]sulfonyl-2-methoxy-phenyl]-3,8-diazabicyclo[3.2.1]octan-3-yl]methanone] cannot be ordered by EC50: < 1 µM for the first, < 1 µM for the second.

COc1ccc(S(=O)(=O)N2CCN(CC(C)c3ccccc3)CC2)cc1N1C2CCC1CN(C(=O)c1ccc(F)cc1Cl)C2 (racemic) [compound 047, (2-chloro-4-fluoro-phenyl)-[(1S,5R)-8-[2-methoxy-5-[4-[(2RS)-2-phenylpropyl]piperazin-1-yl]sulfonyl-phenyl]-3,8-diazabicyclo[3.2.1]octan-3-yl]methanone] and COc1ccc(S(=O)(=O)N2CCN(CC(O)c3ccc(F)cc3)CC2)cc1N1C2CCC1CN(C(=O)c1ccc(F)cc1Cl)C2 (racemic) [compound 128, (2-chloro-4-fluoro-phenyl)-[(1S,5R)-8-[5-[4-[(2RS)-2-(4-fluorophenyl)-2-hydroxy-ethyl]piperazin-1-yl]sulfonyl-2-methoxy-phenyl]-3,8-diazabicyclo[3.2.1]octan-3-yl]methanone] cannot be ordered by EC50: < 1 µM for the first, < 1 µM for the second.

First: CC(NS(=O)(=O)c1cc(Cl)c(O)c(N2C3CCC2CN(C(=O)c2ccc(F)cc2Cl)C3)c1)C(F)(F)F (racemic) [compound 104, 3-chloro-5-[(1S,5R)-3-(2-chloro-4-fluoro-benzoyl)-3,8-diazabicyclo[3.2.1]octan-8-yl]-4-hydroxy-N-[(1SR)-2,2,2-trifluoro-1-methyl-ethyl]benzenesulfonamide]
Second: COc1ccc(S(=O)(=O)N2CCC(C(F)(F)F)CC2)cc1N1[C@@H]2CC[C@H]1CN(C(=O)c1ccc(F)cc1Cl)C2 [compound 007, (2-chloro-4-fluoro-phenyl)-[(1S,5R)-8-[2-methoxy-5-[[4-(trifluoromethyl)-1-piperidyl]sulfonyl]phenyl]-3,8-diazabicyclo[3.2.1]octan-3-yl]methanone]
The EC50 of the first is higher: 1 to 10 µM for the first, < 1 µM for the second.

COc1ccc(S(=O)(=O)N2CCC(N(C)c3ccccc3)C2)cc1N1C2CCC1CN(C(=O)c1ccc(F)cc1Cl)C2 (racemic) [compound 127, (2-chloro-4-fluoro-phenyl)-[(1S,5R)-8-[2-methoxy-5-[(3SR)-3-(N-methylanilino)pyrrolidin-1-yl]sulfonyl-phenyl]-3,8-diazabicyclo[3.2.1]octan-3-yl]methanone] and COc1ccc(S(=O)(=O)N2CCC(=Cc3ccccc3)CC2)cc1N1[C@@H]2CC[C@H]1CN(C(=O)c1ccc(F)cc1Cl)C2 [compound 008, [(1S,5R)-8-[5-[(4-benzylidene-1-piperidyl)sulfonyl]-2-methoxy-phenyl]-3,8-diazabicyclo[3.2.1]octan-3-yl]-(2-chloro-4-fluoro-phenyl)methanone] cannot be ordered by EC50: < 1 µM for the first, < 1 µM for the second.

Compared with CCCN(C)S(=O)(=O)c1ccc(OC)c(N2[C@@H]3CC[C@H]2CN(C(=O)c2ccc(F)cc2Cl)C3)c1 [compound 003], COc1ccc(S(=O)(=O)N(C)CC2CC2)cc1N1[C@@H]2CC[C@H]1CN(C(=O)c1ccc(F)cc1Cl)C2 [compound 005, 3-[(1S,5R)-3-(2-chloro-4-fluoro-benzoyl)-3,8-diazabicyclo[3.2.1]octan-8-yl]-N-(cyclopropylmethyl)-4-methoxy-N-methyl-benzenesulfonamide] is lower in EC50: 1 to 10 µM for the first, < 1 µM for the second. The second is the more potent here.

COc1ccc(S(=O)(=O)N2CCCC2)cc1N1[C@@H]2CC[C@H]1CN(C(=O)c1ccc(F)cc1Cl)C2 [compound 004, (2-chloro-4-fluoro-phenyl)-[(1S,5R)-8-(2-methoxy-5-pyrrolidin-1-ylsulfonyl-phenyl)-3,8-diazabicyclo[3.2.1]octan-3-yl]methanone] and COc1ccc(S(=O)(=O)N2CCC(F)CC2)cc1N1[C@@H]2CC[C@H]1CN(C(=O)c1ccc(F)cc1Cl)C2 [compound 006] fall in the same range of EC50: 1 to 10 µM for the first, 1 to 10 µM for the second.
